Each structure is given as a SMILES string.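 Results reflect a 48-hour exposure of cells in 96-well plates to compound at five concentrations. At the GI50, growth is halved.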 Activity calls are given as the source filed them. No stated cut-off is given here; in the data, active = GI50 up to about 1.1 µM and inactive = higher.

Common to all, as to assay: growth of human tumour cells (NCI), 48 h
For experiment [1], the system named is OVCAR-8.
Experiment [2] concerns HOP-62.
In experiment [3] the test system is TK-10.
Experiment [4] concerns UO-31.
The subject of experiment [5] is RXF 393.
Experiment [6] deals with OVCAR-3.
Experiment [7] has as its system K562.
Experiment [8] deals with LOX IMVI.
In experiment [9] the test system is A549.
The subject of experiment [10] is SNB-19.
The subject of experiment [11] is MDA-MB-231.
For experiment [12], the system named is SF-268.
Experiment [13] relates to M14.
Experiment [14] relates to IGROV-1.
The test system of experiment [15] is 786-0.
Experiment [16] deals with HL-60.
Experiment [17] relates to HCT-15.
For experiment [18], the system named is MOLT-4.
The test system of experiment [19] is HCC 2998.

As to `COc1ccc(/C=C2\N=C(SC)N(C)C2=O)cc1`, the GI50 is > 100 µM (inactive) in [1]; 96.8 µM (inactive) in [2]; > 100 µM (inactive) in [3]; 27 µM (inactive) in experiment [4]; > 100 µM (inactive) in experiment [5]; 46.1 µM (inactive) in experiment [6]. Moreover, the GI50 in experiment [7] was 50.9 µM (inactive); in experiment [8], 75.2 µM (inactive); in experiment [9], 63.2 µM (inactive); in experiment [10] it was > 100 µM (inactive); in [11], 41.2 µM (inactive); in experiment [12] it was 28.1 µM (inactive). Further, the GI50 in experiment [13] is 82.6 µM (inactive); in experiment [14] it was 48 µM (inactive); in experiment [15], 68.7 µM (inactive); in [16], 27.5 µM (inactive); in experiment [17] it was 64.3 µM.

Consider `CC(CCCC1SCC2NC(=O)NC21)C(=O)O` (stereo unspecified), for which the GI50 in experiment [1], in experiment [2], in experiment [3], in [4], in experiment [5] and in experiment [6] was > 100 µM (inactive) in each case. Also, the GI50 in [7], in [8], in experiment [9], in [10], in [11] and in experiment [12] was > 100 µM (inactive) each time. Also, the GI50 was > 100 µM (inactive) in experiment [18]; > 100 µM (inactive) in [13]; > 100 µM (inactive) in experiment [14]; > 100 µM (inactive) in experiment [15]; > 100 µM (inactive) in [16]; above 100 µM in experiment [17].

Consider `CCOC(=O)Nc1nn[nH]c1Cl`, for which the GI50 in experiment [1], in experiment [2], in [3], in experiment [4], in experiment [5] and in [19] was > 100 µM (inactive) in each case. Further, the GI50 in experiment [6], in experiment [7], in experiment [8], in experiment [9], in experiment [11] and in [12] was > 100 µM (inactive) in each case. The GI50 in experiment [18] was > 100 µM (inactive); in experiment [13], > 100 µM (inactive); in experiment [14], > 100 µM (inactive); in experiment [15], > 100 µM (inactive); in [17], above 100 µM.

`COc1ccc2c(c1)C(N)CC2=O` (stereo unspecified): the GI50 was > 100 µM (inactive) in experiment [1]; > 100 µM (inactive) in [2]; > 100 µM (inactive) in experiment [3]; > 100 µM (inactive) in [4]; 19 µM (inactive) in experiment [5]; > 100 µM (inactive) in experiment [19]. Further, the GI50 is > 100 µM (inactive) in [6]; > 100 µM (inactive) in [7]; 19.1 µM (inactive) in [9]; > 100 µM (inactive) in experiment [10]; > 100 µM (inactive) in experiment [11]; > 100 µM (inactive) in experiment [12]. Besides, the GI50 was > 100 µM (inactive) in [18]; > 100 µM (inactive) in experiment [13]; > 100 µM (inactive) in experiment [14]; > 100 µM (inactive) in experiment [15]; above 100 µM in experiment [17].

Take `COc1ccc(-n2c3c(c4cc(O)ccc42)Cc2ccccc2C3=O)cc1`: the GI50 in experiment [1] is 48 µM (inactive); in experiment [2], 42.7 µM (inactive); in experiment [3], 58.7 µM (inactive); in experiment [4] it was > 100 µM (inactive); in experiment [5], < 0.01 µM (active); in experiment [6] it was 21.4 µM (inactive). For the same compound, the GI50 is 31.3 µM (inactive) in [7]; 35.9 µM (inactive) in experiment [8]; 35.6 µM (inactive) in [9]; > 100 µM (inactive) in experiment [10]; 20.1 µM (inactive) in experiment [11]; 26.6 µM (inactive) in experiment [12]. Moreover, the GI50 was 11.5 µM (inactive) in experiment [18]; 38.2 µM (inactive) in experiment [13]; 29.7 µM (inactive) in [14]; 50.2 µM (inactive) in experiment [15]; > 100 µM (inactive) in experiment [16]; 25.1 µM in experiment [17].

As for `O=c1[nH]c2cc3cccnc3c(Cl)c2nc1CBr`, the GI50 in experiment [1] is 17.9 µM (inactive); in experiment [2], 15.5 µM (inactive); in experiment [3], 21.7 µM (inactive); in experiment [4] it was 10.5 µM (inactive); in experiment [5], 17.7 µM (inactive); in experiment [6], 14.8 µM (inactive). Also, the GI50 in experiment [7] was 12.1 µM (inactive); in experiment [8], 13.9 µM (inactive); in experiment [9], 19.3 µM (inactive); in experiment [10] it was 5.73 µM (inactive); in experiment [11], 15.9 µM (inactive); in experiment [12], 22.2 µM (inactive). Also, the GI50 was 8.97 µM (inactive) in experiment [18]; 13.5 µM (inactive) in experiment [13]; 2.92 µM (inactive) in [14]; 6.49 µM (inactive) in experiment [15]; 20.3 µM (inactive) in experiment [16]; 3.08 µM in experiment [17].

For the compound `Cn1c(-c2ccc(/N=N/Nc3ccc(-c4n[nH]c(=S)n4C)cc3)cc2)n[nH]c1=S`, the GI50 in experiment [1] is 4.6 µM (inactive); in [2], 20.3 µM (inactive); in experiment [3], 28.7 µM (inactive); in experiment [4] it was 2.85 µM (inactive); in experiment [5], 11.6 µM (inactive); in experiment [6], 33.3 µM (inactive). Also, the GI50 in [7] was 2.82 µM (inactive); in experiment [8], 16.4 µM (inactive); in [9] it was > 100 µM (inactive); in experiment [10] it was 17.7 µM (inactive); in experiment [11], 18.8 µM (inactive); in experiment [12] it was 16.5 µM (inactive). For the same compound, the GI50 is 3.08 µM (inactive) in experiment [18]; 8.89 µM (inactive) in experiment [13]; 10.2 µM (inactive) in [14]; 52 µM (inactive) in [15]; 4.6 µM (inactive) in experiment [16]; above 100 µM in [17].

Regarding `N#Cc1nc(CN2C(=O)c3ccccc3C2=O)oc1N`, the GI50 in experiment [1], in experiment [2], in experiment [3], in [5], in [19] and in [6] was > 100 µM (inactive) in each case. Further, the GI50 in experiment [7], in [9], in experiment [11], in [12], in [18] and in experiment [13] was > 100 µM (inactive) in each case. In addition, the GI50 in experiment [14] is > 100 µM (inactive); in [15], > 100 µM (inactive); in experiment [17] it was above 100 µM.

Regarding `O=c1[nH]nc(Cc2ccccc2)n1/N=C/c1cccs1`, the GI50 in experiment [1] was > 100 µM (inactive); in experiment [2], > 100 µM (inactive); in [4], > 100 µM (inactive); in [5], 35.2 µM (inactive); in experiment [19] it was > 100 µM (inactive); in experiment [6] it was > 100 µM (inactive). In addition, the GI50 was > 100 µM (inactive) in experiment [7]; > 100 µM (inactive) in experiment [8]; > 100 µM (inactive) in experiment [9]; > 100 µM (inactive) in [10]; 23.4 µM (inactive) in [11]; > 100 µM (inactive) in [12]. For the same compound, the GI50 was 80.7 µM (inactive) in experiment [18], > 100 µM (inactive) in experiment [13], > 100 µM (inactive) in experiment [15] and above 100 µM in experiment [17].

`Cc1cc(N(CCC#N)CCC#N)ccc1C(/N=N/c1ccc(C(=O)O)cc1)=N\NC(=O)c1ccccc1`: the GI50 in experiment [1] is 28.1 µM (inactive); in experiment [2], 32.4 µM (inactive); in experiment [3], > 100 µM (inactive); in [4], 42.7 µM (inactive); in experiment [5], 17.7 µM (inactive); in [19], 17.3 µM (inactive). The GI50 in experiment [6] was > 10 µM (inactive); in [7] it was 12.7 µM (inactive); in experiment [9] it was 25.8 µM (inactive); in [10], 50.8 µM (inactive); in [11], 57.8 µM (inactive); in experiment [12], 53.8 µM (inactive). The GI50 in [18] is 47.1 µM (inactive); in experiment [13], 36.6 µM (inactive); in experiment [14] it was 50.2 µM (inactive); in experiment [15] it was 41.3 µM (inactive); in experiment [17] it was 20.9 µM.

On to `Clc1cc(-c2ccccc2)nc2ccccc12`, for which the GI50 in [1] is 59.7 µM (inactive); in [2], > 100 µM (inactive); in [3], 34 µM (inactive); in experiment [4] it was 32.9 µM (inactive); in experiment [5] it was 31.7 µM (inactive); in experiment [6], 49.9 µM (inactive). The GI50 is 37.8 µM (inactive) in experiment [7]; 40 µM (inactive) in experiment [8]; 35.6 µM (inactive) in experiment [9]; 88.7 µM (inactive) in experiment [10]; 35.4 µM (inactive) in [11]; 44.9 µM (inactive) in experiment [12]. In addition, the GI50 in [18] was 22.1 µM (inactive); in experiment [13] it was 37.6 µM (inactive); in [14], 15.1 µM (inactive); in experiment [15], 39.5 µM (inactive); in experiment [16], 22.5 µM (inactive); in experiment [17], 16 µM.

In the case of `NS(=O)(=O)c1nnc(NS(=O)(=O)c2ccccc2C(=O)O)s1`, the GI50 in [1], in experiment [2], in experiment [3], in [4], in experiment [5] and in experiment [19] was > 100 µM (inactive) each time. Besides, the GI50 in [6] is > 100 µM (inactive); in [7], 40.7 µM (inactive); in experiment [8] it was > 100 µM (inactive); in experiment [9], > 100 µM (inactive); in experiment [10] it was > 100 µM (inactive); in [11], > 100 µM (inactive). Further, the GI50 in experiment [12] is > 100 µM (inactive); in experiment [18] it was 76.7 µM (inactive); in experiment [13], > 100 µM (inactive); in experiment [15] it was > 100 µM (inactive); in [17] it was above 100 µM.

These data come from ChEMBL document CHEMBL1201862, “PubChem BioAssay data set” (2004).
